Reference: patent publication US8609644B2, “Amino derivatives of androstanes and androstenes as medicaments for cardiovascular disorders” (priority 2006, dated 2013)
Structures can show the parent of a compound that is named as a salt. Where two headings read alike, the source gives them in different places.

How the values were obtained:
[1] = biological target: Na+, K+-ATPase (Canis lupus familiaris, UniProt P50997); test: biochemical; parameters: species or system dog
[2] = system: fresh rat hepatocytes; test: Metabolism in fresh rat hepatocytes; conditions: for % of compound metabolized after 60 minutes: fresh rat hepatocytes, test item nominal concentration 45 μM
[3] = system: anesthetized guinea-pig; test: Inotropic effect and lethal dose, slow intravenous infusion (over 90 minutes) in anesthetized guinea-pig; conditions: for ED80 / ED (max) / Emax: Cavia porcellus, iv, 1.5 h; for ED80: read-out: ED80 (inotropic potency, dose increasing +dP/dTmax by 80%); for ED (max): read-out: EDmax (dose inducing maximum positive inotropic effect); for Emax: read-out: Emax % increase in +dP/dTmax; for % decrease from Emax after 20 min from the end of the infusion: duration of the inotropic effect; for Maximum dose infused: maximum dose infused in the survived animals; for Dead/treated / Emax % increase in +dP/dTmax / ED80 (inotropic potency, dose increasing +dP/dTmax by 80%) / EDmax (dose inducing maximum positive inotropic effect): slow i.v. infusion over 90 minutes; for Lethal dose/ED80 (safety ratio): calculated in the died animals; for Emax % increase in +dP/dTmax: maximum increase in contractile force
[4] = dog kidney enzyme, read-out: Na+, K+-ATPase Inhibition IC50
[5] = read-out: Na+, K+-ATPase Inhibition IC50

Row | Compound | IC50 ([1]; Na+, K+-ATPase Inhibition IC50) [nM] | % of compound metabolized after 60 minutes [2] [%] | IC50 [1, 4] [nM] | ED80 [3] [µmol/kg] | ED (max) [3] [µmol/kg] | Emax [3] [%] | % decrease from Emax after 20 min from the end of the infusion [3] [%] | Maximum dose infused [3] [µmol/kg] | Dead/treated [3] | further results
1 | CO/N=C1\C[C@H]2[C@@H]3CCC(=O)[C@@]3(C)CC[C@@H]2[C@@]2(C)CCC(=NOCCN)C[C@]12O (mixture of isomers) [I-bp, (E,Z)-3-(2-Aminoethoxyimino)-5α-hydroxy-6-(E)-methoxyiminoandrostane-17-one fumarate] | 40 | 32 |  |  |  |  |  |  |  | 
2 | C[C@]12CC[C@H]3[C@@H](CC[C@@]4(O)C[C@H](/C=C\CCCN)CC[C@]34C)[C@@H]1CCC2=O [I-dk, 3α-(5-Aminopent-1-(Z)-enyl)-5α-hydroxyandrostane-17-one fumarate] |  | 12 | 690 |  |  |  |  |  |  | 
3 | C[C@]12CC[C@H]3[C@@H](CC[C@@]4(O)CC(=NOCCN)CC[C@]34C)[C@@H]1CCC2=O (mixture of isomers) [I-ad, (E,Z) 3-(2-Aminoethoxyimino)-5α-hydroxyandrostan-17-one fumarate] | 540 |  |  | 5.14 | 22.5 | 202 | 100 | 50.1 | 0/3 | 
4 | CNCCCON=C1CC[C@@]2(C)[C@H](C1)[C@@H](CO)C[C@@H]1[C@@H]2CC[C@]2(C)C(=O)CC[C@@H]12 (mixture of isomers) [I-cl, (E,Z) 3-(3-N-Methylaminopropoxyimino)-6α-hydroxymethylandrostan-17-one hydrochloride] |  |  | 690 | 1.54 | 8.95 | 263 |  | 42.5 | 2/2 | Lethal dose/ED80 (safety ratio) [3]: 27.6
5 | CC12CCC3C(CC(CO)C4CC(=NOCCN)CCC43C)C1CCC2=O (single isomer, unassigned) [I-ao, (E,Z) 3-(2-Aminoethoxyimino)-6α-hydroxymethylandrostan-17-one hydrochloride] |  |  | 180 | 1.8 | 7.37 | 166 | 100 | 12.6 | 0/3 | 
6 | CNCCCON=C1CCC2(C)C(C1)C(NC=O)CC1C3CCC(=O)C3(C)CCC12 (mixture of isomers) [I-co, (E,Z) 3-(3-N-Methylaminopropoxyimino)-6α-formamidoandrostan-17-one hydrochloride] |  |  | 1100 | 0.93 | 2.79 | 177 |  | 44.1 | 2/2 | Lethal dose/ED80 (safety ratio) [3]: 47.4
7 | C[C@]12CC[C@H]3[C@@H](C/C(=N\O)[C@@]4(O)CC(=NOCCN)CC[C@]34C)[C@@H]1CCC2=O.O=C(O)/C=C/C(=O)O [I-bo, (E,Z)-3-(2-Aminoethoxyimino)-5α-hydroxy-6-(E)-hydroxyiminoandrostane-17-one fumarate] |  |  |  |  |  |  | 82 | 12.5 | 0/3 | Emax % increase in +dP/dTmax [3]: 214%; ED80 (inotropic potency, dose increasing +dP/dTmax by 80%) [3]: 1.30 µmol/kg; EDmax (dose inducing maximum positive inotropic effect) [3]: 4.86 µmol/kg; IC50 [1, 5]: 79 nM
8 | CC12CCC3C(C(O)C(CO)C4CC(=NOCCN)CCC43C)C1CCC2=O (mixture of isomers) [I-ej, (E,Z) 3-(2-Aminoethoxyimino)-6α-hydroxymethyl-7α-hydroxyandrostane-17-one hydrochloride] |  | 5 | 22 | 0.34 | 7.55 | 258 |  | 25.0 | 3/3 | Lethal dose/ED80 (safety ratio) [3]: 50
9 | C[C@]12CC[C@@H](/C=C\CCCN)CC1/C(=N/O)C[C@@H]1[C@@H]2CC[C@]2(C)C(=O)CC[C@@H]12.O=C(O)/C=C/C(=O)O (stereo partly drawn) [I-dg, 3α-(5-Aminopent-1-(Z)-enyl)-6-(E)-hydroxyiminoandrostan-17-one fumarate] |  |  |  |  |  |  | 29 | 12.9 | 0/3 | Emax % increase in +dP/dTmax [3]: 105%; ED80 (inotropic potency, dose increasing +dP/dTmax by 80%) [3]: 8.62 µmol/kg; EDmax (dose inducing maximum positive inotropic effect) [3]: 11.4 µmol/kg; IC50 [1, 5]: 390 nM
10 | CNCCCON=C1CC[C@@]2(C)C(C1)C(=NOC)C[C@@H]1[C@@H]2CC[C@]2(C)C(=O)CC[C@@H]12.Cl (stereo partly shown) [I-ci, (E,Z) 3-(3-N-Methylaminopropoxyimino)-6-(E)-methoxyiminoandrostan-17-one hydrochloride] |  | 41 |  |  |  |  |  |  |  | IC50 [1, 5]: 330 nM
11 | C[C@]12CC[C@H](OC(=O)CCN)CC1/C(=N/O)C[C@@H]1[C@@H]2CC[C@]2(C)C(=O)CC[C@@H]12.Cl (stereo partly drawn) [I-dm, 3β-(3-Aminopropionyloxy)-6-(E)-hydroxyiminoandrostan-17-one hydrochloride] |  | 71 |  |  |  |  |  |  |  | 
12 | C=C1C[C@H]2[C@@H]3CCC(=O)[C@@]3(C)CC[C@@H]2[C@@]2(C)CCC(=NOCCN)C[C@]12O (mixture of isomers) [I-bq, (E,Z) 3-(2-Aminoethoxyimino)-5α-hydroxy-6-methylenandrostane-17-one hydrochloride] | 99 |  |  | 5.87 | 15.7 | 173 | 10 | 25.3 | 0/3 | 
13 | CC12CCC3C(C(=NO)CC4CC(=NOCCN)CCC43C)C1CCC2=O (mixture of isomers) [I-bs, (E,Z)-3-(2-Aminoethoxyimino)-7-(E)-hydroxyiminoandrostane-17-one fumarate] |  | 15 |  |  |  |  |  |  |  | 
14 | CC12CCC3C(C(=O)CC4CC(=NOCCN)CCC43C)C1CCC2=O (mixture of isomers) [I-br, (E,Z) 3-(2-Aminoethoxyimino)androstane-7,17-dione fumarate] | 210 |  |  | 1.62 | 13.5 | 264 | 100 | 50.4 | 2/5 | Lethal dose/ED80 (safety ratio) [3]: 32.4
15 | CON=C1CC2C3CCC(=O)C3(C)CCC2C2(C)CCC(=NOCCN)CC12 (mixture of isomers) [I-aw, (E,Z)-3-(2-Aminoethoxyimino)-6-(E)-methoxyiminoandrostan-17-one hydrochloride] |  |  | 17 | 2.35 | 5.77 | 183 | 100 | 12.7 | 0/5 | 
16 | CC1CC2C3CCC(=O)C3(C)CCC2C2(C)CCC(=NOCCN)CC12 (single isomer, unassigned) [I-ba, (E,Z) 3-(2-Aminoethoxyimino)-6α-methylandrostan-17-one hydrochloride] | 300 |  |  | 3.09 | 5.78 | 203 | 100 | 6.3 | 0/3 | 
17 | CC12CCC3C(CC(CCO)C4CC(=NOCCN)CCC43C)C1CCC2=O (mixture of isomers) [I-am, (E,Z) 3-(2-Aminoethoxyimino)-6α-(2-hydroxyethyl)androstan-17-one hydrochloride] |  |  | 320 | 2.5 | 17.2 | 238 | 17 | 50.5 | 2/3 | Lethal dose/ED80 (safety ratio) [3]: 22.7
18 | CC12CCC3C(CC(=CC#N)C4CC(=NOCCN)CCC43C)C1CCC2=O (stereo not shown) [I-bi, (E) 3-(2-Aminoethoxyimino)-17-oxoandrostane-6-(E)-ylideneacetonitrile hydrochloride] | 1700 |  |  |  |  |  |  |  |  | 
19 | CC(=O)N[C@H]1C[C@@H]2[C@H](CC[C@]3(C)C(=O)CC[C@@H]23)[C@@]2(C)CCC(=NOCCN)C[C@H]12 (mixture of isomers) [I-bf, (E,Z) 3-(2-Aminoethoxyimino)-6α-acetamidoandrostan-17-one hydrochloride] |  |  | 45000 |  |  |  |  |  |  | 
20 | CC12CCC3C(CC(=CCO)C4CC(=NOCCN)CCC43C)C1CCC2=O (mixture of isomers) [I-bj, (E,Z) 3-(2-Aminoethoxyimino)-6-(E)-[2-hydroxyethylidene]androstan-17-one hydrochloride] | 770 |  |  |  |  |  |  |  |  | 
21 | C[C@]12CCC(=NOCCN)CC1C(=O)C[C@@H]1[C@@H]2CC[C@]2(C)C(=O)CC[C@@H]12.Cl (mixture of isomers) [compd 22b, (EZ) 3-(2-aminoethoxyimino)androstane-6,17-dione hydrochloride, reference compound] |  | 95 |  | 1.82 | 5.74 | 182 | 100 | 32.1 | 7/8 | Lethal dose/ED80 (safety ratio) [3]: 22.6; metabolism in fresh rat hepatocytes (in words) ([2]; within 60 minutes): almost completely metabolized
22 | CC12CCC3C(CC(C(=O)O)C4CC(=NOCCN)CCC43C)C1CCC2=O (mixture of isomers) [I-ar, (E,Z) 3-(2-Aminoethoxyimino)-6α-carboxyandrostan-17-one hydrochloride] |  |  | 16000 |  |  |  |  |  |  | 
23 | C#C[C@H]1C[C@@H]2[C@H](CC[C@]3(C)C(=O)CC[C@@H]23)[C@@]2(C)CCC(=NOCCN)C[C@H]12 (mixture of isomers) [I-bd, (E,Z) 3-(2-Aminoethoxyimino)-6α-ethynylandrostan-17-one hydrochloride] | 200 |  |  | 4.59 | 9.89 | 163 | 16 | 12.8 | 0/3 | 
